In patent US20230099344A1, “COMPOUNDS AND METHODS FOR THE TARGETED DEGRADATION OF IRAK-4” (Arvinas Operations, Inc., priority 2021, published 2023):

Columns and labels:
IL6 [1] = assay: R848 stimulated IL6 inhibition assay in PBMC; format: cell-based; conditions: PBMC, human PBMCs, R848 stimulation, compound overnight, IL6 by MSD after 24 hrs; for Dmax: Homo sapiens, 24 h, read-out: R848 stim IL6 inhibition Dmax; for IC50: read-out: R848 stim IL6 inhibition IC50
Outline: (§1)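 Primary human PBMCs plated at 2.0×10^6 cells/mL are incubated with compound overnight. Stimulation follows using the donor's EC50 concentration of agonist. MSD detects secreted IL6/IL8 at 24 hrs.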

IL6 [2] = assay: LPS stimulated IL6 inhibition assay in PBMC; format: cell-based; conditions: Homo sapiens, PBMC, 24 h, human PBMCs, LPS stimulation, compound overnight, IL6 by MSD after 24 hrs; for Dmax: read-out: LPS Stim IL6 inhibition Dmax; for IC50: read-out: LPS stim IL6 inhibition IC50
Outline: as §1

IRAK-4 [3] = target: T1, IRAK-4 (Mus musculus, UniProt Q8R4K2); assay: PD study in wild type mice (spleen and lung); format: in vivo; conditions: oral 10, 30 or 90 mg/kg, terminated 24 h later, ELISA, vs vehicle, FIGS. 3A and 3B
T1 construct: plasma, spleen and lung tissue were collected for analysis of compound concentration and IRAK-4 quantification; from tissue; host or cells: spleen and lung of wild type mice
T1 sequence (Q8R4K2 1-459): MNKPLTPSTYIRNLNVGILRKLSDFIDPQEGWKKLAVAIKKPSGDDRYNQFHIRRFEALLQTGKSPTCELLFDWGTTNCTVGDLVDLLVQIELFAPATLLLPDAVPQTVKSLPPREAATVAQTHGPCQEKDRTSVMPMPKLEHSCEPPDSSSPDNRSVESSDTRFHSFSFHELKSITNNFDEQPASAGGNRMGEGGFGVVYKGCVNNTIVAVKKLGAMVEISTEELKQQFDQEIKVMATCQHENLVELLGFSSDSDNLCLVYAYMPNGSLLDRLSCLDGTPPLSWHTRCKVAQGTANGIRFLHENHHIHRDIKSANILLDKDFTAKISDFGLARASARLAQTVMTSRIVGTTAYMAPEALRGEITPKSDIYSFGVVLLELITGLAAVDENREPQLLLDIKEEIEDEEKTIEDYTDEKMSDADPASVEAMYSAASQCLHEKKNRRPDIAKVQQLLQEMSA
Protocol: FIGS. 3A and 3B. PD study in wild type mice.
A PD Study in Wild Type Mice was Performed
In FIGS. 3A and 3B, mice were randomly assigned to each treatment group. Animals were dosed orally with 10, 30, or 90 mg/kg compound formulated in 10% DMSO, 90% (2% Tween 80 in PEG 400) and terminated 24 h later. At termination, plasma, spleen and lung tissue were collected for analysis of compound concentration and IRAK-4 quantification. Spleen and lung were snap frozen. IRAK-4 content in any tissue is assessed with the same protocol described for tumor lysates.

IRAK-4 [4] = target: T2, IRAK-4 (Homo sapiens, UniProt Q9NWZ3); assay: PD study in C.B.17 SCID mice with OCI-LY1 tumor xenograft; format: in vivo; parameters: from tissue; host or cells: OCI-Ly1 tumour xenograft from C.B.17 SCID mice; conditions: OCI-Ly1 tumor lysate, ELISA normalized to total protein; oral 5, 15 or 50 mg/kg, 24 hours post-dose; vs vehicle; FIG. 2
T2 sequence (Q9NWZ3 1-460): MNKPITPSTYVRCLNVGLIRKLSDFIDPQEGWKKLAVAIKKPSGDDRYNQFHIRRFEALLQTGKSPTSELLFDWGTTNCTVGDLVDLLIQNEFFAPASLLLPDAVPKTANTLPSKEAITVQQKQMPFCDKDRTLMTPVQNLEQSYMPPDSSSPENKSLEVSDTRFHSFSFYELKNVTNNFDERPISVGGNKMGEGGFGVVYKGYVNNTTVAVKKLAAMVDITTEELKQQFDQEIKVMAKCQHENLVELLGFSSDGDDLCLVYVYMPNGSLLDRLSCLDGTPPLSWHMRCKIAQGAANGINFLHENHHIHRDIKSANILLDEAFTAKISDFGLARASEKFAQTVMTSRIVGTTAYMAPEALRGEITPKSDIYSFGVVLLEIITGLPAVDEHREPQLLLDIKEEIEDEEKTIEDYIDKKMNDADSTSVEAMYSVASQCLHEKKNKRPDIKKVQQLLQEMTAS
Protocol: FIG. 2. PD study in C.B.17 SCID mice with OCI-LY1 tumor xenograft.
PD Study for with in C.B.17 SCID and WT Mice
Cell culture: OCI-Ly1 tumor cells were maintained as a suspension in IMDM medium supplemented with 20% fetal bovine serum under an atmosphere of 5% C02 in air at 37° C. Cell density was maintained below 1×10^6/mL.
Animals: Female C.B. 17 SCID mice aged 6-8 weeks weighing between 16-18 g were used and maintained according to IACUC protocols.
Tumor Inoculation: Each mouse was inoculated with OCI-Ly1 tumor cells (10×106) in 0.1 mL of RPMI with Matrigel. Treatment was initiated when the tumor sizes reached […].
A PD Study in C.B.17 SCID Mice with OCI-LY1 Tumor Xenograft was Performed
In FIG. 2, animals were dosed orally after tumors were inoculated and the tumor sizes reached […], with 5, 15, or 50 mg/kg formulated with 10% DMSO, 90% (2% Tween 80 in PEG 400) and sacrificed humanely 24 hours post-dose. Blood was obtained for isolation of plasma for terminal compound exposure. Tumors was removed and divided in 2 portions, one each for terminal compound concentration and for determination of IRAK-4 content. Compound concentrations were determined by LC/MS with calibrated standards. IRAK-4 content in tumor lysate was quantified by ELISA and normalized to total protein concentration per sample. […]

IRAK-4 [5] = target: T2, IRAK-4; assay: IRAK-4 ELISA, PBMC degradation; format: cell-based; parameters: endogenous in cells; host or cells: PBMC; conditions: treated overnight
Outline: (§2)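 OCI-Ly10 cells (seeded at 1×10^6/ml) or human PBMC (seeded at 2×10^6/ml) were treated with compound on the day of seeding and incubated overnight. Lysates were then assayed for remaining IRAK-4 protein by sandwich ELISA with a matched antibody pair.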

IL8 = assay: IL-1β stimulated IL8 inhibition assay in PBMC; format: cell-based; conditions: human PBMCs, IL-1β stimulation, compound overnight, IL8 by MSD after 24 hrs; for IC50: read-out: IL1β stim IL8 inhibition IC50; for Emax: read-out: IL1β stim IL8 inhibition Ymax
Outline: as §1

IRAK-4 [6] = target: T2, IRAK-4; assay: IRAK-4 ELISA, OCI-Ly10 degradation; format: cell-based; parameters: endogenous in cells; conditions: treated overnight; for Dmax: OCI-Ly10, OCI-Ly10 cells; for DC50: OCI-Ly10 cells
Outline: as §2

IL6 [7] = assay: IL-1β stimulated IL6 inhibition assay in PBMC; format: cell-based; conditions: PBMC, human PBMCs, IL-1β stimulation, compound overnight, IL6 by MSD after 24 hrs; for IC50: Homo sapiens, 24 h, read-out: IL1β stim IL6 inhibition IC50; for Emax: read-out: IL1β stim IL6 inhibition Ymax
Outline: as §1

Structure (SMILES): CC(C)Oc1cc2c(cc1NC(=O)c1cnn3cccnc13)CN(C1CCN(C(C)(C)C3CN(c4ccc5c(c4)C(=O)N(C4CCC(=O)NC4=O)C5=O)C3)CC1)C2=O (stereo not drawn) [Example 112]
- Dmax (IL6 [1]): ≥ 90%
- IC50 (IL6 [1]): 10 to 50 nM
- Dmax (IL6 [2]): ≥ 90%
- IC50 (IL6 [2]): 10 to 50 nM
- IRAK-4 concentration in spleen and lung samples (IRAK-4 [3]): much lower
- IRAK-4 concentration in the tumor samples (IRAK-4 [4]): lower
- DC50 (IRAK-4 [5]): 1 to 5 nM
- Dmax (IRAK-4 [5]): ≥ 90%
- PBMC DC90 (IRAK-4 [5]): A (A represents a DC90 value <10.0 nM)

Structure (SMILES): O=C1CCC(N2C(=O)c3ccc(N4CC(F)(CN5CCC(n6cc7cc(NC(=O)c8cnn9cccnc89)c(OCC8CC8)cc7n6)CC5)C4)cc3C2=O)C(=O)N1 (stereo not drawn) [Example 161, N-(6-(cyclopropylmethoxy)-2-(1-((1-(2-(2,6-dioxopiperidin-3-yl)-1,3-dioxoisoindolin-5-yl)-3-fluoroazetidin-3-yl)methyl)piperidin-4-yl)-2H-indazol-5-yl)pyrazolo[1,5-a]pyrimidine-3-carboxamide]
- IC50 (IL8): ≥ 100 nM
- Dmax (IL6 [1]): ≥ 90%
- IC50 (IL6 [1]): 10 to 50 nM
- Dmax (IL6 [2]): 70 to 80%
- IC50 (IL6 [2]): 10 to 50 nM
- Dmax (IRAK-4 [6]): ≥ 90%
- DC50 (IRAK-4 [6]): 10 to 50 nM
- IC50 (IL6 [7]): 10 to 50 nM
- Emax (IL6 [7]): 80 to 90%
- DC50 (IRAK-4 [5]): 1 to 5 nM
- Dmax (IRAK-4 [5]): ≥ 90%
- PBMC DC90 (IRAK-4 [5]): B (B represents a DC90 value ≥10.0 nM and <25.0 nM)

Structure (SMILES): O=C1CCC(N2C(=O)c3ccc(N4CCC(CN5CCC(n6cc7cc(NC(=O)c8cnn9cccnc89)c(OCC8CC8)cc7n6)CC5)CC4)cc3C2=O)C(=O)N1 (stereo not drawn) [Example 165]
- IC50 (IL8): 10 to 50 nM
- Emax (IL8): 70 to 80%
- Dmax (IL6 [1]): ≥ 90%
- IC50 (IL6 [1]): 10 to 50 nM
- Dmax (IL6 [2]): 70 to 80%
- IC50 (IL6 [2]): 10 to 50 nM
- Dmax (IRAK-4 [6]): ≥ 90%
- DC50 (IRAK-4 [6]): 10 to 50 nM
- IC50 (IL6 [7]): < 10 nM
- Emax (IL6 [7]): 80 to 90%
- DC50 (IRAK-4 [5]): 1 to 5 nM
- Dmax (IRAK-4 [5]): ≥ 90%
- PBMC DC90 (IRAK-4 [5]): A (A represents a DC90 value <10.0 nM)

Structure (SMILES): O=C1CCC(N2C(=O)c3ccc(N4CCN(CCN5CCC(n6cc7cc(NC(=O)c8cnn9cccnc89)c(OCC8CC8)cc7n6)CC5)CC4)cc3C2=O)C(=O)N1 (stereo not drawn) [Example 167]
- IC50 (IL8): ≥ 100 nM
- Emax (IL8): 80 to 90%
- Dmax (IRAK-4 [6]): ≥ 90%
- DC50 (IRAK-4 [6]): < 10 nM
- IRAK-4 concentration in spleen and lung samples (IRAK-4 [3]): much lower
- IC50 (IL6 [7]): 10 to 50 nM
- Emax (IL6 [7]): ≥ 90%
- DC50 (IRAK-4 [5]): < 1 nM
- Dmax (IRAK-4 [5]): ≥ 90%
- PBMC DC90 (IRAK-4 [5]): A (A represents a DC90 value <10.0 nM)

Structure (SMILES): CC(C)Oc1cc2c(cc1NC(=O)c1cnn3cccnc13)CN([C@H]1CC[C@H](N(C)C3CN(c4ccc5c(c4)C(=O)N(C4CCC(=O)NC4=O)C5=O)C3)CC1)C2=O (stereo partly drawn) [Example 313, N-(2-((1r,4r)-4-((1-(2-(2,6-dioxopiperidin-3-yl)-1,3-dioxoisoindolin-5-yl)azetidin-3-yl)(methyl)amino)cyclohexyl)-6-isopropoxy-1-oxoisoindolin-5-yl)pyrazolo[1,5-a]pyrimidine-3-carboxamide]
- IC50 (IL8): < 10 nM
- Emax (IL8): < 70%
- Dmax (IL6 [1]): ≥ 90%
- IC50 (IL6 [1]): < 10 nM
- Dmax (IL6 [2]): 80 to 90%
- IC50 (IL6 [2]): 10 to 50 nM
- Dmax (IRAK-4 [6]): ≥ 90%
- DC50 (IRAK-4 [6]): < 10 nM
- IC50 (IL6 [7]): < 10 nM
- Emax (IL6 [7]): ≥ 90%
- DC50 (IRAK-4 [5]): < 1 nM
- Dmax (IRAK-4 [5]): ≥ 90%
- PBMC DC90 (IRAK-4 [5]): A (A represents a DC90 value <10.0 nM)
